Target: Cathepsin S (Homo sapiens, UniProt P25774)
Experiment: Cathepsin Enzyme Inhibition Assay: Enzyme activity is measured by observing the increase in fluorescence intensity caused by cleavage of a peptide substrate containing a fluorophore whose emission is quenched in the intact peptide.Assay buffer: 100 mM potassium phosphate pH 6.5, EDTA-Na 5 mM, Triton X-100 0.001%, DTT 5 mM.Enzymes (all at 1 nM): human and mouse Cathepsin S, Cat K, Cat B, Cat L.Substrate (20 Z-Val-Val-Arg-AMC, except for Cat K which uses Z-Leu-Arg-AMC (both from Bachem).Z=Benzyloxycarbonyl.AMC=7-Amino-4-Methyl-Coumarin.DTT=dithiothreitol.Final volume: 100 μL.Excitation 360 nm, Emission 465 nm.Enzyme is added to the substance dilutions in 96-well microtitre plates and the reaction is started with substrate. Fluorescence emission is measured over 20 minutes, during which time a linear increase is observed in the absence of inhibitor.

Sequence of Cathepsin S (P25774 whole entry): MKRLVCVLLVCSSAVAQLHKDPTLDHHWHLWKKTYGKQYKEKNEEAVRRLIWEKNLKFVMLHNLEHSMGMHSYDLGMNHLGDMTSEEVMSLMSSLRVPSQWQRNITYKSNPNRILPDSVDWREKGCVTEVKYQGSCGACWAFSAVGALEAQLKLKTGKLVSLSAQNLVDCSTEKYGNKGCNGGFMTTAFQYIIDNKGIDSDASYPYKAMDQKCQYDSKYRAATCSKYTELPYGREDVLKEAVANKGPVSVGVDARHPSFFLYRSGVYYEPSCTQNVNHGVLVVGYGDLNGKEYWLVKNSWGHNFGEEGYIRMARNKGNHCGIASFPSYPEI

Cn1c(=O)n(C2CCN(Cc3nc(-c4ccc(C(F)(F)F)cc4)[nH]c3-c3ccccc3)CC2)c2ccccc21
IC50: 0.985 µM
